Biological target: T1, α-synuclein (Homo sapiens, UniProt P37840)
T1 construct: gene SNCA; pathological α-syn aggregates in post-mortem human brain tissue
Test: radioligand saturation binding (autoradiography and radiobinding) on human brain tissue; displacement by unlabeled ACI-12589; micro-autoradiography

## ACI-12589
  Kd: 0.0335 ± 0.0174 µM

— PMC10611796, “The α-synuclein PET tracer [18F] ACI-12589 distinguishes multiple system atrophy from other neurodegenerative diseases” (Nature Communications, 2023)
